Measurements taken from publication PMC3755041 (Chemistry & biology, 2013).

Tests used:
[1] = target: Peroxiredoxin-1 from Ancylostoma ceylanicum, wild type, N-terminal histidine tag (Ancylostoma ceylanicum); experiment: SEC-MALS
[2] = target: Peroxiredoxin-1 from Ancylostoma ceylanicum, wild type, N-terminal histidine tag (Ancylostoma ceylanicum); experiment: non-reducing SDS-PAGE
[3] = target: AcePrx-1 containing a C-terminal histidine tag (Ancylostoma ceylanicum); experiment: SEC-MALS
[4] = target: AcePrx-1 (peroxiredoxin-1) (Ancylostoma ceylanicum, UniProt J7HJM3); experiment: co-crystal structure; type: biochemical
[5] = target: T1, human peroxiredoxin-IV (hPrxIV) (Homo sapiens, UniProt Q13162); experiment: H2O2 consumption assay; type: biochemical
T1 sequence (Q13162 38-271): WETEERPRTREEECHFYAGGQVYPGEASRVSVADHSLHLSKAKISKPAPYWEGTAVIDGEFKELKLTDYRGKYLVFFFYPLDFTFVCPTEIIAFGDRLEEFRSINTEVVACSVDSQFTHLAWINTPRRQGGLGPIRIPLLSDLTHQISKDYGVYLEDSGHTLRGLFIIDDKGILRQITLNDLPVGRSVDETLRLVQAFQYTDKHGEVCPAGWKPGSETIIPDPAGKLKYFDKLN

[6] = target: T2, human peroxiredoxin-II (hPrxII) (Homo sapiens, UniProt P32119); experiment: H2O2 consumption assay; type: biochemical
T2 sequence (P32119 2-198): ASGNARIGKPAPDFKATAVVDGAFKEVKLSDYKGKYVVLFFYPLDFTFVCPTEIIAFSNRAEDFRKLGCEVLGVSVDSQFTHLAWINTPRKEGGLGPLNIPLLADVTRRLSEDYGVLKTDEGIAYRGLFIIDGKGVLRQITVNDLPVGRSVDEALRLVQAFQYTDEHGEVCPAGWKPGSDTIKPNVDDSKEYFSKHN

[7] = target: T3, AcePrx-1 (peroxiredoxin-1) (Ancylostoma ceylanicum, UniProt J7HJM3); experiment: LC-ESI-MS of covalent adduct on purified protein; type: binding
T3 sequence (J7HJM3 1-196): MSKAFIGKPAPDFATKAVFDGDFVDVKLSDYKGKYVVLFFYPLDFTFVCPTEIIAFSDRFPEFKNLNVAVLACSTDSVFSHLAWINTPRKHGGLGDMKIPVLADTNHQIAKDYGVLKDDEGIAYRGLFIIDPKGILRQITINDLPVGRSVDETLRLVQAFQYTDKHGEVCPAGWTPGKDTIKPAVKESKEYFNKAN

## Peroxiredoxin-1 from Ancylostoma ceylanicum, wild type, N-terminal histidine tag (enzyme)
[1]
  stoichiometry N: 10
[2]
  stoichiometry N: 2

## AcePrx-1 containing a C-terminal histidine tag (enzyme)
[3]
  stoichiometry N: 10

## [O-][n+]1c(CBr)c(CBr)[n+]([O-])c2ccccc21 [conoidin A, 2,3-bis(bromomethyl)quinoxaline-1,4-dioxide]
[4]
  IC50: 374 µM
[5]
  IC50: 262 µM
[6]
  IC50: 358 µM

## Cc1c(CBr)[n+]([O-])c2ccccc2[n+]1[O-] [conoidin B, 2-(bromomethyl)-3-methylquinoxaline-1,4-dioxide]
[7]
  LC-ESI-MS of covalent adduct on purified protein: Conoidin B reacted to wild type AcePrx-1 to produce a 189-Da adduct in LC-ESI-MS
